The values below come from patent US11414454B2, “Compositions, methods, and systems for affinity-based protein identification and purification” (Auctus Biologies, Inc., priority 2017, dated 2022).

The target in assay [1] is RPtag (large). The experiment in a line: Fluorescence anisotropy Kd of rhodamine labeled RPtag (small) peptides for RPtag (large). The format is binding, Thermoanaerobacter tengcongensis. Particulars: for Kd: N-terminal rhodamine tagged peptide, unlabeled RPtag (large), 50 mM Tris pH 8.0, 0.005% Tween 20, mean ± SE; for effect of alanine mutation on binding affinity to RPtag(large): alanine scanning versus native. The method, then:
50 nM of RP-Tag Small (see Sequence 3, below) with an N-terminal Rhodamine B label was incubated with increasing concentrations of either RP-Tag Large (see Sequence 2) or Bovine Serum Albumin (BSA) in 50 mM Tris pH 8.0, 150 mM NaCl, 10 mM 2-mercaptoethanol, and 0.005% Tween 20 for 5 min in black 96-well plates at room temperature.
Anisotropy was then measured, and a Kd calculated by fitting the data to the equation f=y0+(ymax−y0)*(Ptot+x+Kd−sqrt((Ptot+x+Kd)^2−4*Ptot*x))/(2*Ptot), where y0 is the baseline anisotropy, ymax is the maximum anisotropy, Ptot is the fixed concentration of labeled peptide used, x is the variable concentration of protein used, and Kd is the measured Kd.
The indicated concentrations of RPtag (large) and an anti-His tag antibody (4E3D10H2/E3 purchased from ThermoFisher Scientific) were incubated with 1 nM rhodamine labeled native RPtag (small) peptide and 6×His peptide (Rhodamine-GHHHHHH), respectively, and fluorescence anisotropy measured. BSA incubated with native rhodamine labeled RPtag(small) is included as a control for non-specific binding. Kd's were calculated according to the equation f=y0+(ymax−y0)*(Ptot+x+Kd−sqrt((Ptot+x+Kd)^2−4*Ptot*x))/(2*Ptot), where y0 is the baseline anisotropy, ymax is the maximum anisotropy, Ptot is the fixed concentration of labeled peptide used, x is the variable concentration of protein used, and Kd is the measured Kd. We measured a Kd of 0.2±0.1 nM for RPtag(large) binding RPtag(small), and a Kd of 6±1 nM for the antibody/6×His tag pair.
Regarding the studies shown in FIG. 14, increasing concentrations of unlabeled RPtag large with the indicated mutations (native, f137d, and f137e) were incubated for 1 h with 1 nM rhodamine labeled RPtag small peptide and the fluorescence anisotropy was measured. Resultant curves were fit with the equation f=y0+(ymax−y0)*(Ptot+x+Kd−sqrt((Ptot+x+Kd)^2−4*Ptot*x))/(2*Ptot), where y0 is the baseline anisotropy, ymax is the maximum anisotropy, Ptot is the fixed concentration of labeled peptide used, x is the variable concentration of protein used, and Kd is the measured Kd. Data are presented here as Ka=1/Kd. Log transformed Ka's were then compared by one-way ANOVA with Holm-Sidak post hoc correction. ***p<0.001, **p<0.01, *p<0.05. data are mean±SEM (n=3-4). Buffer was 50 mM Tris pH 8.0, 0.005% tween20. Proteins were expressed and purified by single step NiNTA chromatography as before. Peptides were synthesized solid-state and handled as previous.
Background: Polarisation of emitted light reports the rotation of a fluorescent probe.

Assay [2] has as its system RPtag (large). The experiment in a line: Association/dissociation kinetics of RPtag (small) peptides with RPtag (large) by fluorescence anisotropy. The format is binding, Thermoanaerobacter tengcongensis. Particulars: for koff: LS dissociation, unlabeled competitor peptide; for kf: S to S* forward rate constant; for kr: S* to S reverse rate constant, calculated from Keq and kf; for kon (M^−1 min^−1 ) (×10^7): S*-LS transition, calculated from measured koff and Kd. The method, then: Panel a depicts representative association rate kinetics traces varying native RPtag small. Rhodamine labeled RPtag small at the indicated concentration was incubated with unlabeled RPtag large and the association measured by fluorescence anisotropy. L-S complex concentration was calculated by the equation (r−rmin)/(rmax−rmin)*[S] where r is the measured anisotropy, rmin is the anisotropy in the absence of any RPtag large, rmax is the anisotropy measured in the presence of at saturating RPtag large, and [S] is the total concentration of RPtag small used in the experiment. […] Dashed cyan lines are simulations of the mechanism shown in f using the rate constants detailed herein. The concentrations in the simulations were multiplied by a correction factor of 0.925, which is well within the 90% purity specification of the purchased peptide.
LS complex was performed by incubating 1000 nM RPtag large with the indicated concentrations of rhodamine labeled RPtag small. At the start of the experiment, 0.1 mM unlabeled native RPtag small was added and fluorescence anisotropy monitored. Data processing was done as in panel a, except the red fits were to the single exponential decay equation y=y0+A*exp(−b*t). As expected, the initial dissociation rates were linear with respect to the LS complex.
Fitting to a line yields a rate constant (koff)=0.0091 min^−1 (FIG. 9 panel e). In good agreement, when the kinetics are fit with a first order rate law, a rate constant of 0.012±0.002 min^−1 (n=15) was observed. […] Panel e is a graph of the initial rates of the traces represented in d. Slope of the fit line is 0.0091 min^−1. Data are mean±SE (n=3).
The library of mutant RPtag(small) peptides, described above, was next analyzed to measure off rates (koff). The on rate was also calculated from measured koff and Kd (S*-LS transition), except instead of using unlabeled native peptide as the competitor, we used unlabeled Nd2,P5A,E18A (the tightest binding RPtag(small) peptide identified). […] However, there were notable exceptions. […] This indicates, without wishing to be limited, that P5 may constrain the structure of the peptide. The increased flexibility imparted to the peptide by the P5A mutation may decrease the energy barrier required for binding/unbinding.

Residues, ends and D or L forms follow the SMILES beside them. No end group written: not given here.

For the compound `CC(C)[C@H](NC(=O)[C@H](CC(N)=O)NC(=O)[C@@H](N)CCC(=O)O)C(=O)N[C@@H](CCC(N)=O)C(=O)O` [Nd17, ENVQ] (H-ENVQ-OH; N-terminus and C-terminus assumed), the Kd (as a rule, the equilibrium constant for the complex coming apart) at RPtag (large) [1] was over 100 µM.
Take `CC[C@H](C)[C@H](NC(=O)[C@H](CC(C)C)NC(=O)[C@H](CCCCN)NC(=O)[C@H](CC(C)C)NC(=O)[C@H](CCC(=O)O)NC(=O)[C@H](C)NC(=O)[C@@H]1CCCN1C(=O)[C@@H](NC(=O)[C@H](Cc1ccccc1)NC(=O)[C@H](CC(N)=O)NC(=O)[C@@H]1CCCN1C(=O)[C@@H](NC(=O)[C@H](CCCCN)NC(=O)[C@H](CCC(=O)O)NC(=O)[C@H](C)N)[C@@H](C)CC)[C@@H](C)CC)C(=O)N[C@H](C(=O)N[C@@H](CCCCN)C(=O)N[C@@H](CCC(=O)O)C(=O)N[C@@H](CC(N)=O)C(=O)N[C@H](C(=O)N[C@@H](CCC(N)=O)C(=O)O)C(C)C)[C@@H](C)O` [g1a]: the Kd at RPtag (large) [1] stood at 0.00029 ± 3e-05 µM. Also, in the assay with RPtag (large) [2], the koff (usually the rate constant with which the complex falls apart) was 7.83e-05 ± 5e-06 s⁻¹, the “kf” value was found to be 0.086 ± 0.004 min⁻¹, the “kr” value was 0.037 ± 0.001 min⁻¹ and the “kon (M^−1 min^−1 ) (×10^7)” value is on record as 1.6 ± 0.1 ×10^7 M^−1 min^−1.
With AIANFIPAELKLITKANVQ [Nd2, k3a, e18a], the dissociation constant (Kd) on RPtag (large) [1] came to 0.00088 ± 1e-05 µM. Also, in the assay on RPtag (large) [2], the “koff” value amounted to 0.000533 ± 1.7e-05 s⁻¹ and the “kon (M^−1 min^−1 ) (×10^7)” value is 2.6 ± 0.1 ×10^7 M^−1 min^−1.
With FIPAELKLITK [Nd6, Cd4, FIPAELKLITK], the Kd on RPtag (large) [1] is 0.0099 ± 0.0011 µM. Besides, the “koff” value in the assay with RPtag (large) [2] is over 0.033 s⁻¹.
Take GAKIPNFIPAELKLITKENVQ [e2a]: in the assay on RPtag (large) [1], the “effect of alanine mutation on binding affinity to RPtag(large)” value (from here on “effect of alanine mutation”) is recorded as “significantly increased binding affinity”. In the assay on RPtag (large) [2], the “koff” value was found to be 8.83e-05 ± 1.2e-05 s⁻¹ and the “kon (M^−1 min^−1 ) (×10^7)” value is recorded as 5.1 ± 0.7 ×10^7 M^−1 min^−1.
In the case of GEKIP [Cd16], the Kd at RPtag (large) [1] is over 100 µM.
The same measure, in the same setting: to GEKIPN [Cd15] belongs over 100 µM; to GEKIPNF [Cd14], over 100 µM; to GEKIPNFI [Cd13], over 100 µM.
Regarding GEKIPNFIAPELALITKENVQ [k13a], the Kd at RPtag (large) [1] was found to be 0.0011 ± 0.0001 µM. In addition, in the assay on RPtag (large) [2], the “koff” value was found to be 0.0003 ± 1.7e-05 s⁻¹ and the “kon (M^−1 min^−1 ) (×10^7)” value is recorded as 1.7 ± 0.1 ×10^7 M^−1 min^−1.
For GEKIPNFIPA [Cd11], at RPtag (large) [1], the Kd was over 100 µM.
Take GEKIPNFIPAE [Cd10]: the Kd on RPtag (large) [1] was over 100 µM.
In the case of GEKIPNFIPAEL [Cd9], the Kd at RPtag (large) [1] was over 100 µM.
Regarding GEKIPNFIPAELK [Cd8], at RPtag (large) [1], the Kd is over 100 µM.
In the case of GEKIPNFIPAELKLITKANVQ [e18a], the “effect of alanine mutation” value in the assay on RPtag (large) [1] is listed as “significantly increased binding affinity”. Also, in the assay with RPtag (large) [2], the “koff” value is 0.000145 ± 6.7e-06 s⁻¹ and the “kon (M^−1 min^−1 ) (×10^7)” value is on record as 16 ± 0.8 ×10^7 M^−1 min^−1.
Regarding GEKIPNFIPAELKLITKENV [Cd1], at RPtag (large) [1], the dissociation constant (Kd) was found to be 0.00055 ± 4e-05 µM. Further, in the assay with RPtag (large) [2], the “koff” value is 0.000102 ± 1e-05 s⁻¹, the “kf” value was found to be 0.10 ± 0.01 min⁻¹, the “kr” value was 0.042 ± 0.007 min⁻¹ and the “kon (M^−1 min^−1 ) (×10^7)” value was 1.1 ± 0.1 ×10^7 M^−1 min^−1.
The matching figures for “GEKIPNFIPAELKLITKENVQ [n19a, RPtag(small) with N19 changed to alanine]”: 0.00026 ± 2e-05 µM, 0.000617 ± 5e-05 s⁻¹, 0.089 ± 0.003 min⁻¹, 0.057 ± 0.008 min⁻¹ and 14 ± 1 ×10^7 M^−1 min^−1.
Take “GEKIPNFIPAELKLITKENVQ [q21a, RPtag(small) with Q21 changed to alanine]”: the “effect of alanine mutation” value in the assay with RPtag (large) [1] is recorded as “significantly increased binding affinity”. Besides, in the assay on RPtag (large) [2], the “koff” value stood at 5.67e-05 ± 5e-06 s⁻¹ and the “kf” value stood at 0.087 ± 0.005 min⁻¹.
As to ITKENVQ [Nd14], the Kd at RPtag (large) [1] was over 100 µM.
As for KENVQ [Nd16], the Kd on RPtag (large) [1] is over 100 µM.
On the same count and under the same terms, the same measure for TKENVQ [Nd15]: over 100 µM.
